Results from ChEMBL document CHEMBL4364269, “Identification of a novel orally bioavailable ERK5 inhibitor with selectivity over p38α and BRD4” (Eur J Med Chem, 2019).
One block for each compound: values may come before it.

Tests used:
[1] = system: A2780; test: Antitumor activity against human A2780 cells xenografted in CD1 mouse assessed as reduction in tumor volume at 50 mg/kg, ip administered bid for 10 days started on day 7 post-tumor inoculation and measured three times per week by digital caliper analysis; assay type: functional
[2] = target: Bromodomain-containing protein 4 (Homo sapiens, UniProt O60885); test: Inhibition of BRD4 (unknown origin)
[3] = Toxicity in CD1 mouse xenografted with human A2780 cells assessed as body weight at 50 mg/kg, ip administered bid for 10 days (reference value: 96%); assay type: organism-based; details: in vivo, 240 h
[4] = Volume of distribution in CD1 mouse at 10 mg/kg, iv measured upto 24 hrs by LCMS analysis; assay type: ADME, organism-based; details: in vivo
[5] = Clearance in CD1 mouse at 10 mg/kg, iv measured upto 24 hrs by LCMS analysis; assay type: ADME, organism-based; details: in vivo
[6] = Stability in human liver microsomes assessed as intrinsic clearance per mg protein; assay type: ADME, Microsome; details: read-out: CLH
[7] = Half life in CD1 mouse at 10 mg/kg, iv measured upto 24 hrs by LCMS analysis; assay type: ADME, organism-based; details: in vivo
[8] = target: Cytochrome P450 3A4 (Homo sapiens, UniProt P08684); test: Inhibition of CYP3A4 (unknown origin); assay type: ADME
[9] = Tmax in CD1 mouse at 10 mg/kg, po measured upto 24 hrs by LCMS analysis; assay type: ADME, organism-based; details: in vivo
[10] = Oral bioavailability in CD1 mouse at 10 mg/kg measured upto 24 hrs by LCMS analysis; assay type: ADME, organism-based; details: in vivo
[11] = target: Cytochrome P450 2C19 (Homo sapiens, UniProt P33261); test: Inhibition of CYP2C19 (unknown origin); assay type: ADME
[12] = system: A2780; test: Antitumor activity against human A2780 cells xenografted in CD1 mouse assessed as reduction in tumor volume at 100 mg/kg, po administered bid for 10 days started on day 7 post-tumor inoculation and measured three times per week by digital caliper analysis; assay type: functional
[13] = Fraction unbound in plasma (unknown origin); assay type: ADME, cell-free
[14] = target: Mitogen-activated protein kinase 14 (Homo sapiens, UniProt Q16539); test: Inhibition of recombinant N-terminal GST-tagged full length human p38alpha expressed in Escherichia coli cells assessed as substrate phosphorylation using Ulight-MBP peptide as substrate incubated for 1 hr by LANCE assay
[15] = Cmax in CD1 mouse at 10 mg/kg, po measured upto 24 hrs by LCMS analysis; assay type: ADME, organism-based; design: dose 10 mg/kg, route oral; details: in vivo
[16] = system: PC-3; test: Growth inhibition of human PC3 cells; assay type: functional
[17] = AUC in CD1 mouse at 10 mg/kg, po measured upto 24 hrs by LCMS analysis; assay type: ADME, organism-based; design: dose 10 mg/kg, time < 24 hr, route oral; details: in vivo
[18] = target: Cytochrome P450 2C9 (Homo sapiens, UniProt P11712); test: Inhibition of CYP2C9 (unknown origin); assay type: ADME
[19] = Toxicity in CD1 mouse xenografted with human A2780 cells assessed as body weight at 100 mg/kg, po administered bid for 10 days (reference value: 96%); assay type: organism-based; details: in vivo, 240 h
[20] = Stability in mouse liver microsomes assessed as intrinsic clearance per mg protein; assay type: ADME, Microsome; details: read-out: CLH
[21] = AUC in CD1 mouse at 10 mg/kg, iv measured upto 24 hrs by LCMS analysis; assay type: ADME, organism-based; design: time < 24 hr, dose 10 mg/kg, route intravenous; details: in vivo
[22] = Permeability across basolateral to apical side in human Caco2 cells; assay type: ADME, cell-based; details: Caco-2, read-out: permeability
[23] = target: Cytochrome P450 2D6 (Homo sapiens, UniProt P10635); test: Inhibition of CYP2D6 (unknown origin); assay type: ADME
[24] = Cmax in CD1 mouse at 10 mg/kg, iv measured upto 24 hrs by LCMS analysis; assay type: ADME, organism-based; design: dose 10 mg/kg, route intravenous; details: in vivo
[25] = Solubility of compound by turbidometry; assay type: physicochemical
[26] = target: T1, Mitogen-activated protein kinase 7 (Homo sapiens, UniProt Q13164); test: Inhibition of ERK5 (unknown origin) using R7129 as substrate incubated for 2 hrs by IMAP fluorescence polarization analysis
[27] = target: T1, Mitogen-activated protein kinase 7; test: Inhibition of HA-tagged ERK5 (unknown origin) coexpressed with mutationally activated EGFP-MEK5D and Gal4-MEF2D in HEK293 cells assessed as reduction in MEF2 transcription by measuring luciferase signal after 20 hrs by luciferase reporter gene assay; assay type: cell-based
[28] = target: T1, Mitogen-activated protein kinase 7; test: Inhibition of recombinant N-terminal His-tagged human ERK5 (2 to 409 residues) co-expressed with GST-tagged human truncated MEK5DD lacking N-terminal 11 residues (13 to 448 residues) in Sf9 insect cells assessed as substrate peptide phosphorylation using (LVEPLTPSGEAPNQ(K-5FAM)-COOH as substrate incubated for 2 hrs by IMAP fluorescence polarisation assay

Mitogen-activated protein kinase 14, sequence (Q16539 whole entry): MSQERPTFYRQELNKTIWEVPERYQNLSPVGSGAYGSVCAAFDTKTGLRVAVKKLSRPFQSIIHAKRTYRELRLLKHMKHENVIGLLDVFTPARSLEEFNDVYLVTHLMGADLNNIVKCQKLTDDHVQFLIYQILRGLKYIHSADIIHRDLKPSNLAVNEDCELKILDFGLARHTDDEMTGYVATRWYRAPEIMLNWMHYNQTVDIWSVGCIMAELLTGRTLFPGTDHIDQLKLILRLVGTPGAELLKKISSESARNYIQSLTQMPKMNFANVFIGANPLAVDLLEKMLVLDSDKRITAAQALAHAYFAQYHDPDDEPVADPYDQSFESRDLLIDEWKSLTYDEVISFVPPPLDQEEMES
T1 sequence (Q13164 whole entry, the tested form may be a part): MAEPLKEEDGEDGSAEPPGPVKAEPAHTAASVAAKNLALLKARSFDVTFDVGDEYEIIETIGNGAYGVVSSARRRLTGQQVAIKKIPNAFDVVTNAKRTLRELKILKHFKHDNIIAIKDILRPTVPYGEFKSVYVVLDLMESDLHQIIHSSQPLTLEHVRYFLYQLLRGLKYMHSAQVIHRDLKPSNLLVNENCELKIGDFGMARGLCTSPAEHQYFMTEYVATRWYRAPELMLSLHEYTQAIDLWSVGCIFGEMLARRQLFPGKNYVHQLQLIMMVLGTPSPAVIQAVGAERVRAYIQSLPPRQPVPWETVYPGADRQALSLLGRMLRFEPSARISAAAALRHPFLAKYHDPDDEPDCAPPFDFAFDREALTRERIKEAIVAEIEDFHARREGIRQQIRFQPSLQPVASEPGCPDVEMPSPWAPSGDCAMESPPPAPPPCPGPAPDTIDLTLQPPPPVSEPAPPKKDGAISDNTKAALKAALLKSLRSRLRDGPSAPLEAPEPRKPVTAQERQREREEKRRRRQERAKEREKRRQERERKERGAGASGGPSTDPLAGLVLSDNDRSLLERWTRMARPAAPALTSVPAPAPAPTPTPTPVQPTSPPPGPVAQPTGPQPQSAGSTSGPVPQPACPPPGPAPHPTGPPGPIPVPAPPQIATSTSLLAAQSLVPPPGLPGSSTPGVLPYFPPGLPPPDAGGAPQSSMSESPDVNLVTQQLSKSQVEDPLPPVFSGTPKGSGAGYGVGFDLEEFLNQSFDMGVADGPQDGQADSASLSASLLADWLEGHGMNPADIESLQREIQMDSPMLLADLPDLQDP
Cytochrome P450 2C19, sequence (P33261 whole entry): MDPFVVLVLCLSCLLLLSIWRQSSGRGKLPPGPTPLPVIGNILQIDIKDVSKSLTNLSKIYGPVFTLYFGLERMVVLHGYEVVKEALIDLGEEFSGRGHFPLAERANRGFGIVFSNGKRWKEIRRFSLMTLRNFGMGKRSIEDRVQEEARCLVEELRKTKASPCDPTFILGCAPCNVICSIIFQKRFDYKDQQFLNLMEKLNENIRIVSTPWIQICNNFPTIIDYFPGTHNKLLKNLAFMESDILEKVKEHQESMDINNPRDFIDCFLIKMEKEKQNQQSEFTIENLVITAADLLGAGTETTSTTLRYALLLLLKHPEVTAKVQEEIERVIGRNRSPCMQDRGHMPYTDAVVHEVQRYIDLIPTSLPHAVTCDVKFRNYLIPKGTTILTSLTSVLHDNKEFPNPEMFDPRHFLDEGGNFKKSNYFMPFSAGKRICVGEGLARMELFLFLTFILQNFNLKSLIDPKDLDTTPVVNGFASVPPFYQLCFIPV
Cytochrome P450 2D6, sequence (P10635 whole entry): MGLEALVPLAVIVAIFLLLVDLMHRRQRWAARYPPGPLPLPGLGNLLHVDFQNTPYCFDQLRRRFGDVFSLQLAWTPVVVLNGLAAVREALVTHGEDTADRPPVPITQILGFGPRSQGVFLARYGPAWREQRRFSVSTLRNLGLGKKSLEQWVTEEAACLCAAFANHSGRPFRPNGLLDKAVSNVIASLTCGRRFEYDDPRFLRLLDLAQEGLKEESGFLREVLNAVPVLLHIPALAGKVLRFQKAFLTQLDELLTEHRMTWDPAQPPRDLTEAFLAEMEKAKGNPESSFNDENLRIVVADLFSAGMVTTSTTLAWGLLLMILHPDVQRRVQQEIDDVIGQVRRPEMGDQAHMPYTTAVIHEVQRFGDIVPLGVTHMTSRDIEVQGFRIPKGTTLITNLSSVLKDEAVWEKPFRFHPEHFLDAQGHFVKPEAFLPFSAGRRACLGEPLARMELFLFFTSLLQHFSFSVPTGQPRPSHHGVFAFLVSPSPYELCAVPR
Cytochrome P450 2C9, sequence (P11712 whole entry): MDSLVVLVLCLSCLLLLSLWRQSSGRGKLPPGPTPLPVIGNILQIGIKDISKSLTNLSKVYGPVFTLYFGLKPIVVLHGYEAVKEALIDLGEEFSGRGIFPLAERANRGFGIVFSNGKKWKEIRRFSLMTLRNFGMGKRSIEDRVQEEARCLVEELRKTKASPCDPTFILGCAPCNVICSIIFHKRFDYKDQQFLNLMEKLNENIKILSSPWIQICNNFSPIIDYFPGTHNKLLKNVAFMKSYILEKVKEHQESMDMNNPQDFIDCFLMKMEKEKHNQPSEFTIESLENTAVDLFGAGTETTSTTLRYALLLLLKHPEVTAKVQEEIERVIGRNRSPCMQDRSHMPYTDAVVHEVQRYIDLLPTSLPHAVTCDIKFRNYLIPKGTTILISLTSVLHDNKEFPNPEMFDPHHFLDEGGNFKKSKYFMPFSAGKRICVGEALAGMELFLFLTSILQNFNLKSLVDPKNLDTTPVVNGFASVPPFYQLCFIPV
Cytochrome P450 3A4, sequence (P08684 whole entry): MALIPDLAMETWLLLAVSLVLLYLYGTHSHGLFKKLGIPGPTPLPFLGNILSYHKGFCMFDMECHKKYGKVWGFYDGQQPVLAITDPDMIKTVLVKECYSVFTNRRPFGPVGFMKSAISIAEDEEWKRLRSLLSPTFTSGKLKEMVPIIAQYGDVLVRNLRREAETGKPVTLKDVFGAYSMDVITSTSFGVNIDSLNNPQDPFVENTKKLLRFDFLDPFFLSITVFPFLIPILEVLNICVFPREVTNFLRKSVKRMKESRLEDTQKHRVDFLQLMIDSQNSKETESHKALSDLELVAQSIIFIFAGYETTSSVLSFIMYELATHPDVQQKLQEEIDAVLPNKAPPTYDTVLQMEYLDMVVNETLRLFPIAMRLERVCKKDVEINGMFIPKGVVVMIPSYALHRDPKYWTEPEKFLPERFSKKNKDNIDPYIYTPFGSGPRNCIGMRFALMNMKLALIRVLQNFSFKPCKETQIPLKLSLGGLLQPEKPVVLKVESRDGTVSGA

Kd [2]: 1.6 µM
SMILES: CCOc1cc(N2CCC(O)CC2)ccc1Nc1ncc2c(n1)N(C)c1ccccc1C(=O)N2C
inhibition in vivo at 50 mg/kg [1]: 62% | Activity [3]: 98%

Vd [4]: 1.2 L/kg | clearance [5]: 27 mL/min/kg | microsomal CLint [6]: < 5 µL/min/mg | half-life [7]: 38 min | IC50 [8]: > 5 µM | Tmax [9]: 15 min | bioavailability [10]: 68% | IC50 [11]: > 5 µM | fraction unbound [13]: 0.06 | IC50 [14]: > 120 µM | Cmax [15]: 6 µM | GI50 [16]: 44 µM | AUC at 24 h [17]: 4230 ng·h/mL | IC50 [18]: > 5 µM | microsomal CLint [20]: 26 µL/min/mg | AUC at 24 h [21]: 6200 ng·h/mL | Papp B→A [22]: > 10 ×10⁻⁶ cm/s | IC50 [23]: > 5 µM | Cmax [24]: 25 µM | solubility kinetic [25]: > 100 µM
SMILES: O=C(Nc1cccnc1)c1cc(C(=O)c2c(F)cccc2Br)c[nH]1
inhibition in vivo at 100 mg/kg [12]: 57% | Activity [19]: 99%

IC50 [26]: 2 µM
SMILES: O=C(NCc1ccncc1)c1cc(C(=O)c2cccc(Cl)c2Cl)c[nH]1

IC50 [14]: 100 µM | IC50 [27]: 8 µM
SMILES: O=C(Nc1ccncc1)c1cc(C(=O)c2c(F)cccc2F)c[nH]1

IC50 [28]: 30 µM | IC50 [14]: 0.58 µM
SMILES: O=C(NCc1ccncc1)c1cc(C(=O)c2c(F)cccc2F)c[nH]1

IC50 [28]: 4.4 µM | IC50 [14]: 12.3 µM
SMILES: O=C(NCc1ccncc1)c1cc(C(=O)c2c(Cl)cccc2Cl)c[nH]1

IC50 [14]: 93.2 µM
SMILES: O=C(Nc1cccnc1)c1cc(C(=O)c2c(F)cccc2Cl)c[nH]1

IC50 [28]: 7 µM | IC50 [14]: 2.4 µM
SMILES: O=C(NCc1ccncc1)c1cc(C(=O)c2cccc(F)c2F)c[nH]1

IC50 [28]: 15 µM
SMILES: O=C(NCc1ccncc1)c1cc(C(=O)c2ccccc2Cl)c[nH]1

IC50 [28]: 1.1 µM | IC50 [14]: 35 µM
SMILES: O=C(Nc1cccnc1)c1cc(C(=O)c2c(F)cccc2F)c[nH]1

IC50 [28]: > 120 µM
SMILES: O=C(c1ccc(Cl)cc1)c1c[nH]c(C(=O)NCc2ccncc2)c1

IC50 [28]: 5.9 µM | IC50 [14]: 0.36 µM
SMILES: O=C(NCc1ccncc1)c1cc(C(=O)c2ccccc2F)c[nH]1

IC50 [28]: 0.7 µM | IC50 [14]: > 120 µM | IC50 [27]: 4 µM
SMILES: O=C(Nc1ccncc1)c1cc(C(=O)c2c(F)cccc2Br)c[nH]1

IC50 [14]: > 120 µM | IC50 [27]: 2.3 µM
SMILES: O=C(Nc1ccncc1)c1cc(C(=O)c2c(F)cccc2Cl)c[nH]1

IC50 [28]: > 120 µM
SMILES: O=C(c1ccc(F)cc1)c1c[nH]c(C(=O)NCc2ccncc2)c1

IC50 [28]: 40 µM
SMILES: O=C(c1ccccc1)c1c[nH]c(C(=O)NCc2ccncc2)c1

IC50 [28]: 6.3 µM | IC50 [14]: 6.5 µM
SMILES: O=C(c1cccc(Cl)c1)c1c[nH]c(C(=O)NCc2ccncc2)c1

IC50 [28]: > 120 µM
SMILES: O=C(c1cccc(F)c1)c1c[nH]c(C(=O)NCc2ccncc2)c1
